# Laboratory results published in US20020013478A1, “Calanolide analogues and methods of their use” (Sarawak Medichem Pharmaceuticals,Inc., priority 1994, published 2002).
# Where two headings read alike, the source gives them in different places.
# How the values were obtained:
# [1] = tested on: 2.2.15 cells; assay: Toxicity in 2.2.15 cells, neutral red dye uptake; assay type: cell-based, human
# Protocol: Cells of 2.2.15 were grown to confluence in 96-well flat-bottomed tissue culture plates and treated with compounds (in 0.2 mL culture medium/well) as described above. Four concentrations of each compound were assayed, each in triplicate cultures, in 3- to 10-fold steps. Untreated control cultures were maintained on each 96-well plate. On each 96-well plate, wells containing no cells were used to correct for light scattering.
# [2] = tested on: human foreskin fibroblast cells; assay: Toxicity run with the HCMV assay, human foreskin fibroblast cells; assay type: cell-based; settings: Table II; for IC50: Homo sapiens, Fibroblast
# Protocol: (§1) [table] […] The media from the wells is then aspirated and 2 mL of each drug concentration is then added to each well. The cells are then incubated in a CO2 incubator at 37° C. for 72 h. At the end of this time, the media-drug solution is removed and the cells washed. […] The cell-media mixture is then pipetted up and down vigorously to break up the cell suspension, and 0.2 mL of the mixture is added to 9.8 mL of Isoton III and counted using a Coulter Counter. Each sample is counted three times with three replicate wells per sample. The procedure for plating cells and adding drug is the same as for the MTT Assay. After drug addition, the plates are incubated for seven days in a CO2 incubator at 37° C. […] This is incubated in the CO2 incubator for one hour. The dye is aspirated and the cells are washed using a Nunc Plate Washer. […] The plates are rotated for 15 minutes and the optical densities are read at 550 nm on a plate reader.
# [3] = tested on: HCMV; assay: HCMV semi-automated CPE-inhibition assay in human foreskin fibroblast cells; assay type: cell-based, human cytomegalovirus; settings: Table II; for EC50: Human betaherpesvirus 5, Fibroblast
# [4] = tested on: CEM-SS cells; assay: CEM-SS MTT assay, cytotoxicity (Table I); assay type: cell-based, human; settings: Homo sapiens
# [5] = tested on: HBV RI; assay: HBV replication in 2.2.15 cells, intracellular DNA replication intermediates (secondary assay); settings: for EC50: read-out: HBV RI EC50; for EC90: read-out: HBV RI EC90
# [6] = tested on: HBV; assay: HBV replication in cultures of 2.2.15 cells, extracellular HBV virion DNA (primary assay); settings: for activity in primary assay (HBV virion): text summary of Table IV
# Protocol: Both intracellular and extracellular HBV DNA are analyzed in order to (i) allow for verification of compound efficacy and (ii) provide possible data on the target site in the HBV replication pathway for the compound from examination of the pattern of viral replicative forms. The culture medium is changed daily during the treatment period to (i) prevent the buildup of potentially toxic metabolites derived from test compounds and (ii) provide an analysis of HBV virion production during discrete 24-hour intervals which enables a quantitative comparison of any effect on virion production.
# The analysis of HBV DNA is performed using blot hybridization techniques (Southern and slot blot) and [^32P]-labeled HBV-specific probes. HBV DNA levels are measured by comparison to known amounts of HBV DNA standards applied to every nitrocellulose membrane (gel or slot blot). An AMBIS beta scanner, which measures the radioactive decay of the hybridized probes directly from the nitrocellulose membranes, is used for the quantitative analysis. Standard curves, generated by multiple analyses, are used to correlate CPM measurements made by the beta scanner with relative levels of target HBV DNA. The levels of HBV virion DNA released into the culture medium are analyzed by a slot blot hybridization procedure.
# [7] = tested on: Raji or Daudi cells; assay: Toxicity run with the EBV assay; assay type: cell-based, human; settings: Table II
# From the text: IC50 (50% inhibitory concentration) is the concentration required to inhibit cell proliferation by 50%
# [8] = tested on: EBV; assay: EBV assay: superinfection of Raji or Daudi cells with P3HR-1, immunofluorescence for EA and VCA; assay type: cell-based, Epstein-Barr virus; settings: Table II
# From the text: There are two prototypes of infectious EBV. One is exemplified by the virus derived from supernatant fluids of the P3HR-1cell line. This cell line produces nontransforming virus that causes the production of early antigen (EA) after primary infection or superinfection of B cell lines. The other prototype is exemplified by the B-95-8 virus. This virus immortalized cord blood lymphocytes and induced tumors in marmosets.
# The virus used in our assays is P3HR-1.
# Ramos is an exceptional B cell line derived from Burkitt's lymphoma tumor but containing no detectable EBV genome copies and is EBNA negative. Ramos/AW was obtained by in vitro infection of Ramos with the P3HR-1 virus and contains one resident EBV genome copy/cell. Raji is a Burkitt's lymphoma cell line containing 60 EBV genomes/cell, and will be the primary cell used for screening antiviral activity against EBV EA expression. Daudi is a low level producer that contains 152 EBV genome copies/cell. It spontaneously expresses EBV EA in 0.25%-0.5% of the cells. It will be used in follow-up studies to confirm activity. These cell lines respond to superinfection by EBV by expressing EA(D), EA(R), and VCA. All cell lines are maintained in RPMI-1640 medium supplemented by 10% FCS, L-glutamine and 100 μg/mL gentamicin. The cultures are fed twice weekly and the cell concentration adjusted to 3×10^5/mL. The cells are kept at 37° C. in a humidified atmosphere with 5% CO2.
# Cells are infected with the P3HR-1 strain of EBV and the drugs to be tested are added after adsorption (45 minutes at 37° C.) and washing of the cell cultures. The cultures are incubated for two days in complete medium to allow viral gene expression. Following the 48 hr incubation period, the number of cells of each sample are counted and smears made. Monoclonal antibodies to the different EA components and VCA are then added to the cells incubated and washed. This is followed by a fluorescein conjugated rabbit anti-mouse Ig antibody; and the number of fluorescence positive cells in the smears are counted. The total number of cells in the cultures positive for EA or VCA are then calculated and compared.
# [9] = tested on: VZV; assay: VZV plaque reduction assay in human foreskin fibroblast cells; assay type: cell-based, varicella zoster virus; settings: Table II
# Protocol: Two days prior to use, HFF cells are plated into six-well plates and incubated at 37° C. with 5% CO2 and 90% humidity. On the date of assay, the drug is made up at twice the desired concentration in 2x MEM and then serially diluted 1:5 in 2x MEM using six concentrations of drug. The initial starting concentration is usually 200 gg/mL down to 0.06 μg/mL. The virus to be used is diluted in MEM containing 10% FBS to a desired concentration which will give 20-30 plaques per well. The media is then aspirated from the wells and 0.2 mL of virus is added to each well in duplicate with 0.2 mL of media being added to drug toxicity wells. The plates are then incubated for one hour with shaking every fifteen minutes. After the incubation period, an equal amount of 1% agarose was added to an equal volume of each drug dilution. This will give final drug concentrations beginning with 100 μg/mL and ending with 0.03 μg/mL and a final agarose overlay concentration of 0.5%. The drug agarose mixture is applied to each well in 2 mL volume and the plates then incubated for three days, after which the cells were stained with a 1.5% solution of neutral red. At the end of 4-6hr incubation period, the stain is aspirated, and plaques counted using a stereomicroscope at lOx magnification.
# The procedure is essentially the same as for the HSV plaque assay described above with two exceptions:
# 1. After addition of the drug, the plates are incubated for ten days.
# 2. On days three and six, an additional 1 mL overlay with equal amounts of 2x MEM and 1% agarose are added.
# [10] = tested on: human foreskin fibroblast cells; assay: Toxicity run with the VZV assay, human foreskin fibroblast cells; assay type: cell-based; settings: Table II
# Protocol: as §1
# [11] = tested on: H112-2 HIV viral strain; assay: In vitro MTT assay, isolate not pre-treated with AZT (Example 37, FIGS. 2); settings: H112-2 strain; FIGS. 2(a)-2(e)
# [12] = tested on: G910-6 HIV viral strain; assay: In vitro MTT assay, AZT-resistant isolate (Example 37, FIGS. 1); settings: G910-6 strain, FIGS. 1(a)-1(e)
# [13] = tested on: HIV-1; settings: for Maximum Protection (%): CEM-SS MTT assay; for protecting cells against HIV infection: text summary of Table I
# [14] = tested on: HIV-1; assay: microbe, parasite or virus in culture; settings: Human immunodeficiency virus 1, CEM-SS
# [15] = tested on: pyridinone-resistant A17 virus; settings: cited from earlier work
# [16] = tested on: AZT-resistant G-9106 strain of HIV; settings: cited from earlier work
# [17] = tested on: human T-lymphoblastic cells (CEM-SS); settings: cited from earlier work
# [18] = tested on: HIV-1; settings: cited from earlier work
# [19] = tested on: uninfected cells (MT-2, CEM-SS); assay: MTT cytotoxicity on uninfected cells (Example 37); assay type: cell-based, human
# [20] = Homo sapiens, Table II, read-out: HBV IC50
# [21] = Hepatitis B virus, read-out: HBV EC50
smiles,measurement,setting,value
"CCCc1cc(=O)oc2c3c(c4c(c12)OC(C)(C)C=C4)OC(C)C(C)(C)C3=O (racemic) [(±)-15a, (±)-10,11-Dihydro-6,6,10,11,11-pentamethyl-4-propyl-2H,6H, 12H-benzo[1,2-b:3,4-b′:5,6-b″]tripyran-2,12-dione]",IC50,[1]; [20],1990 µM
same,IC50,"[1]; Homo sapiens, Table IV, HBV RI columns, read-out: HBV RI IC50",1790 µM
same,IC50,"[1]; Homo sapiens, Table IV, HBV Virion columns, read-out: HBV Virion IC50",1790 µM
same,IC50,[2],> 100 µg/mL
same,EC50,[3],> 100 µg/mL
same,IC50,[4],19.3 µM
same,EC50,[5]; Hepatitis B virus,> 30 µM
same,EC90,[5]; Hepatitis B virus,> 30 µM
same,EC50,[6]; [21],2 µM
same,EC90,"[6]; Hepatitis B virus, read-out: HBV EC90",16 µM
same,EC50,"[6]; Hepatitis B virus, read-out: HBV Virion EC50",2.8 µM
same,EC90,"[6]; Hepatitis B virus, read-out: HBV Virion EC90",20 µM
same,activity in primary assay (HBV virion),[6],active
CCCc1cc(=O)oc2c3c(c4c(c12)OC(C)(C)C=C4)OCC(C)C3=O (racemic) [(±)-15f],EBV IC50,[7],>50 µg/mL
same,IC50,"[1]; Table II, read-out: HBV IC50",270 µM
same,IC50,"[1]; Table IV, HBV RI columns, read-out: HBV RI IC50",303 µM
same,IC50,"[1]; Table IV, HBV Virion columns, read-out: HBV Virion IC50",303 µM
same,HCMV IC50,[2],>100 µg/mL
same,HCMV EC50,[3],>100 µg/mL
same,EBV EC50,[8],>50 µg/mL
same,EC50,[5]; Table IV,5.7 µM
same,EC90,[5]; Table IV,15 µM
same,activity in secondary assay (HBV RI),[5]; text summary of Table IV,active
same,EC50,"[6]; read-out: HBV EC50, Table II",0.67 µM
same,EC50,"[6]; read-out: HBV Virion EC50, Table IV",0.81 µM
same,EC90,"[6]; read-out: HBV Virion EC90, Table IV",5 µM
same,activity in primary assay (HBV virion),[6],active
same,VZV EC50,[9],>20 µg/mL
same,VZV IC50,[10],60.0 µg/mL
"CCCc1cc(=O)oc2c3c(c4c(c12)OC(C)(C)C=C4)O[C@H](C)[C@@H](C)[C@@H]3O (racemic) [(±)-calanolide A, (±)-Calanolide A]",antiviral effect (reducing viral CPE),[11],nearly as effective as (+)-calanolide A
same,antiviral effect (reducing viral CPE),[12],effective in reducing viral CPE
"CCCc1cc(=O)oc2c(C(=O)[C@@H](C)[C@@H](C)O)c(O)c3c(c12)OC(C)(C)C=C3 (relative stereo) [(±)-8a, 6,6-Dimethyl-9-hydroxy-10-[2(S*)-methyl-3(R*)-hydroxybutyro-]4-propyl-2H,6H-benzo[1,2-b:3,4b′]dipyran-2-one]",melting point,,66 to 67 °C
same,Maximum Protection (%),[13],84%
same,protecting cells against HIV infection,[13],highly efficacious
same,IC50,[4],23.8 µM
same,EC50,[14],6.16 µM
"CCCc1cc(=O)oc2c(C(=O)[C@@H](C)[C@H](C)O)c(O)c3c(c12)OC(C)(C)C=C3 (relative stereo) [(±)-8b, 6,6-Dimethyl-9-hydroxy-10-12(S*)-methyl-3(S*)-hydroxybutyro]4-propyl-2H,6H-benzo[1,2-b:3,4-b′]dipyran-2-one]",melting point,,115 °C
same,Maximum Protection (%),[13],81%
same,protecting cells against HIV infection,[13],highly efficacious
same,IC50,[4],21.5 µM
same,EC50,[14],2.28 µM
"CCCc1cc(=O)oc2c3c(c4c(c12)OC(C)(C)C=C4)O[C@H](C)[C@@H](C)[C@@H]3O [(+)-1, (+)-Calanolide A]",IC50,[7]; Homo sapiens,> 50 µg/mL
same,activity against pyridinone-resistant A17 virus,[15],active
same,IC50,[1]; [20],175 µM
same,IC50,[2],86.2 µg/mL
same,EC50,[3],> 20 µg/mL
same,EC50,[8]; human gammaherpesvirus 4,> 50 µg/mL
same,activity against AZT-resistant G-9106 strain of HIV,[16],active
same,IC50,[17],20 µM
same,EC50,[18]; HIV-1 replication in CEM-SS cells,0.1 µM
same,protection against the cytopathic effects of HIV-1,[18]; down to a concentration of 0.1 μM,100%
same,EC50,[6]; [21],> 2.6 µM
same,antiviral effect (reducing viral CPE),[12],effective in reducing viral CPE
"CCCc1cc(=O)oc2c3c(c4c(c12)OC(C)(C)C=C4)O[C@@H](C)[C@H](C)[C@H]3O [(−)-1, (-)-Calanolide A]",EBV IC50,[7],>100 µg/mL
same,IC50,"[1]; Table II, read-out: HBV IC50",173 µM
same,antiviral effect (reducing viral CPE),[11],very little antiviral effect
same,HCMV IC50,[2],80.3 µg/mL
same,HCMV EC50,[3],>20 µg/mL
same,EBV EC50,[8],>100 µg/mL
same,EC50,"[6]; read-out: HBV EC50, Table II",> 30 µM
same,antiviral effect (reducing viral CPE),[12],very little antiviral effect
same,toxicity,[19]; FIGS. 2(a)-2(e),relatively non-toxic
same,toxicity,"[19]; at concentrations of 1 μg/mL, FIGS. 1(a)-1(e)",relatively non-toxic
"Cc1cn([C@H]2C[C@H](N=[N+]=[N-])[C@@H](CO)O2)c(=O)[nH]c1=O [AZT, reference compound]",antiviral effect (reducing viral CPE),[11],sensitive to AZT
same,antiviral effect (reducing viral CPE),[12],little to no effect
"CCCc1cc(=O)oc2c3c(c4c(c12)OC(C)(C)C=C4)OC(C)=C(C)C3O (stereo not drawn) [Compound 6, 12-hydroxy-6,6,10,11-tetramethyl-4-propyl-2H,6H,12H-benzo[1,2-b:3,4-b′:5,6-b″]tripyran-2-one]",melting point,,176 to 177 °C
